Experimental data from BindingDB's records for doi:10.1016/s0960-894x(99)00041-4 (1999).
Numbered stars: 1 amine (or outer) side, 2 acyl side, 3 side chain; on linkers, the order of the positions; unused ones are H or OH. Bridge positions count the residues as written; N and C are the ends. Square brackets hold non-standard residues; d marks the D form. Peptide text beside a SMILES is read from it. X1 = O=C([C@@]1(N[*:1])CCc2ccccc2C1)[*:2]; Atc(2S) = N[C@@]1(C(=O)O)CCc2ccccc2C1; Mpa = O=C(O)CCS; Sar = CNCC(=O)O

Target: Oxytocin receptor (Cavia porcellus)
Test: Compound was evaluated for its dissociation constant (Kd) to guinea pig myometrial Oxytocin receptor

SMILES | Kd
CC[C@H](C)[C@@H]1NC(=O)[C@]2(CCc3ccccc3C2)NC(=O)CCSSC[C@@H](C(=O)N(C)CC(=O)N[C@@H](CCCN=C(N)N)C(=O)NCC(N)=O)NC(=O)[C@H](CC(N)=O)NC(=O)[C@H](CCC(N)=O)NC1=O ([Mpa][X1]IQNC[Sar]RG-NH2; disulfide 1-6) | 1920 nM
CC[C@H](C)[C@@H]1NC(=O)[C@@H](Cc2c[nH]c3ccccc23)NC(=O)CCSSC[C@@H](C(=O)N(C)CC(=O)N[C@@H](CCCNC(=N)N)C(=O)NCC(N)=O)NC(=O)[C@H](CC(N)=O)NC(=O)[C@H](CCC(N)=O)NC1=O [Mpa-D-Trp-lle-Gln-Asn-Cys-Sar-Arg-Gly-NH2] | 38 nM
CC[C@H](C)[C@@H]1NC(=O)[C@@]2(CCc3ccccc3C2)NC(=O)CCSSC[C@@H](C(=O)N(C)CC(=O)N[C@@H](CCCN=C(N)N)C(=O)NCC(N)=O)NC(=O)[C@H](CC(N)=O)NC(=O)[C@H](CCC(N)=O)NC1=O ([Mpa][Atc(2S)]IQNC[Sar]RG-NH2; disulfide 1-6) | 370 nM
